Results: patent US20050079529A1, “Very large scale immobilized polymer synthesis” (Affymetrix, INC., priority 1989, published 2005)
Entries after “also recorded” stand apart in the source; their conditions may differ.

System: antibody 3E7
Test: not given
Details: known from Meo et al., Proc. Natl. Acad. Sci. USA (1983) 80:4084; cited from earlier work

Compound	affinity of binding by antibody 3E7
YGGFM: SEQ ID NO:21, the immunogen used to obtain antibody 3E7	nanomolar affinity

System: antibody 3E7
Test: 10-step binary synthesis array of 1,024 peptides, fluorescence scan after antibody 3E7 and fluoresceinated antibody
Assay type: binding, mouse
Details: additional binary syntheses based on peptides on phage leads

Compound	fluorescence signal relative to YGGFM
YGAFM: SEQ ID NO:19	stronger fluorescence signals than does YGGFM
YGAFMQ: SEQ ID NO:18	stronger fluorescence signals than does YGGFM
YGAFQ: SEQ ID NO:20	stronger fluorescence signals than does YGGFM

System: antibody 3E7
Test: as above
Assay type: binding, mouse
Details: not given
From the text: The power of the binary masking strategy can be appreciated by the outcome of a 10-step synthesis that produced 1,024 peptides. The polynomial expression for this 10-step binary synthesis was: (f+Ø)(Y+Ø)(G+Ø)(A+Ø)(G+Ø)(T+Ø)(F+Ø)(L+Ø)(S+Ø)(F+Ø)
Each peptide occupied a 400×400 μm square. A 32×32 peptide array (1,024 peptides, including the null peptide and 10 peptides of l=1, and a limited number of duplicates) was clearly evident in a fluorescence scan following side group deprotection and treatment with the antibody 3E7 and fluoresceinated antibody. Each synthesis site was a 400×400 μm square.
(x=20, y=9). […] The median value of the array was 4,800 counts.
The identity of each peptide in the array could be determined from its x and y coordinates (each range from 0 to 31) and the map of FIG. 29. The chemical units at positions 2, 5, 6, 9, and 10 are specified by the y coordinate and those at positions 1, 3, 4, 7, 8 by the x coordinate. All but one of the peptides was shorter than 10 residues. For example, the peptide at x=12 and y=3 is YGAGF (SEQ ID NO:30; […]).
It is often desirable to deduce a binding affinity of a given peptide from the measured fluorescence intensity. Conceptually, the simplest case is one in which a single peptide binds to a univalent antibody molecule. The fluorescence scan is carried out after the slide is washed with buffer for a defined time. The order of fluorescence intensities is then a measure primarily of the relative dissociation rates of the antibody-peptide complexes. If the on-rate constants are the same (e.g., if they are diffusion-controlled), the order of fluorescence intensities will typically correspond to the order of binding affinities. However, the situation is sometimes more complex because a bivalent primary antibody and a bivalent secondary antibody are used. The density of peptides in a synthesis area corresponded to a mean separation of […], which would allow multivalent antibody-peptide interactions. […] For a more complete analysis of how the present invention can be extended to the binding affinity of an immobilized ligand to a receptor, see U.S. Ser. No. 07/796,947, filed Nov. 22, 1991, and incorporated herein by reference.

Compound	rank of fluorescence in the 1,024 peptide array
YGAF: SEQ ID NO:8	most highly fluorescent
YGAFF: SEQ ID NO:13	most highly fluorescent
YGAFL: SEQ ID NO:6	most highly fluorescent
YGAFLF: SEQ ID NO:12	most highly fluorescent
YGAFLS: SEQ ID NO:4	brightest element of the array; also recorded: most highly fluorescent
YGAFLSF	most highly fluorescent
YGAFS: SEQ ID NO:5	most highly fluorescent
YGAFSF: SEQ ID NO:16	most highly fluorescent
YGAL: SEQ ID NO:11	most highly fluorescent
YGALS: SEQ ID NO:9	most highly fluorescent
YGGFLS: SEQ ID NO:7	most highly fluorescent
YGGFS: SEQ ID NO:10	most highly fluorescent
YGGLS: SEQ ID NO:14	most highly fluorescent

System: antibody 3E7
Test: Fluorescence scan of 50 μm YGGFL/PGGFL checkerboard array probed with antibody 3E7 and fluoresceinated goat anti-mouse antibody
Assay type: binding
Details: 2 μg/ml 3E7; 50 μm checkerboard
Procedure: FIG. 11 is a flow chart illustrating another example of the invention. Carboxy-activated NVOC-leucine was allowed to react with an aminated substrate. The carboxy activated HOBT ester of leucine and other amino acids used in this synthesis was formed by mixing 0.25 mmol of the NVOC amino protected amino acid with 37 mg HOBT (1-hydroxybenzotriazole), 111 mg BOP (benzotriazolyl-n-oxy-tris (dimethylamino)-phosphoniumhexa-fluorophosphate) and 86 μl DIEA (diisopropylethylamine) in 2.5 ml DMF. The NVOC protecting group was removed by uniform illumination. Carboxy-activated NVOC-phenylalanine was coupled to the exposed amino groups for 2 hours at room temperature, and then washed with DMF and methylene chloride. Two unmasked cycles of photodeprotection and coupling with carboxy-activated NVOC-glycine were carried out. The surface was then illuminated through a chrome on glass 50 μm checkerboard pattern mask. Carboxy-activated Na-tBOC-O-tButyl-L-tyrosine was then added. […]
The array of pentapeptides was probed with a mouse monoclonal antibody directed against β-endorphin. […] The surface was scanned with an epi-fluorescence microscope. […] The height of each spike in this display is linearly proportional to the integrated fluorescence intensity in a 2.5 μm pixel. […] There is little variation in the fluorescence intensity of different YGGFL squares. […]

Compound	binding of antibody 3E7 to surface peptide
Pro-Gly-Gly-Phe-Leu (PGGFL)	does not bind

System: not listed separately
Test: Photolysis of N-protected L-phenylalanine in solution
Assay type: physicochemical
Details: 5 mM H2SO4/Dioxane; 0.10 mM protected phenylalanine
Procedure: The photoremovable protecting groups of the present invention are readily removed. For example, the photolysis of N-protected L-phenylalanine in solution having different photoremovable protecting groups was analyzed, and the results are presented in the following table: […]

Compound	t1/2 in seconds, photolysis of protected L-Phe-OH [min]
CC(OC(=O)NC(Cc1ccccc1)C(=O)O)c1cc2c(cc1[N+](=O)[O-])OCO2 (stereo not shown) [MeNPOC]	0.367
O=C(NC(Cc1ccccc1)C(=O)O)OCc1ccccc1[N+](=O)[O-] (stereo not shown) [NBOC, reference compound]	26.25
COc1cc(COC(=O)NC(Cc2ccccc2)C(=O)O)c([N+](=O)[O-])cc1OC (stereo not shown) [NVOC, reference compound]	1.63

Same assay, conditions: Dioxane; 0.10 mM protected phenylalanine

Compound	t1/2 in seconds, photolysis of protected L-Phe-OH [min]
CC(OC(=O)NC(Cc1ccccc1)C(=O)O)c1cc2c(cc1[N+](=O)[O-])OCO2 (stereo not shown) [MeNPOC]	0.317
O=C(NC(Cc1ccccc1)C(=O)O)OCc1ccccc1[N+](=O)[O-] (stereo not shown) [NBOC, reference compound]	21.47
COc1cc(COC(=O)NC(Cc2ccccc2)C(=O)O)c([N+](=O)[O-])cc1OC (stereo not shown) [NVOC, reference compound]	1.83

System: Herz antibody
Test: 50 μm checkerboard of YGGFL and YPGGFL, antibody fluorescence plot
Assay type: binding, mouse
Details: not given

Compound	recognition / binding by the antibody
YPGGFL: peptide, SEQ ID NO:3	does not bind significantly

System: Herz antibody
Test: YGGFL/GGFL checkerboard slide exposed to Herz antibody and goat anti-mouse fluorescein conjugate
Assay type: binding
Details: 500×500 μm mask
Procedure: A first antibody, known as the Herz antibody, was applied to the surface of the slide for 45 minutes at 2 μg/ml in a supercocktail (containing 1% BSA and 1% ovalbumin also in this case). A second antibody, goat anti-mouse fluorescein conjugate, was then added at 2 μg/ml in the supercocktail buffer, and allowed to incubate for 2 hours.
Monomer-by-monomer synthesis of YGGFL and GGFL in alternate squares was performed on a slide in a checkerboard pattern and the resulting slide was exposed to the Herz antibody. This experiment and the results thereof are illustrated in FIGS. 13A, 13B, 13C, and 13D.
In FIG. 13A, a slide is shown which is derivatized with t-BOC-aminopropyl-triethoxysilane. The slide was treated with TFA to remove the t-BOC protecting group. t-BOC-6-aminocaproic acid was then coupled onto the aminopropyl groups. The aminocaproic acid serves as a spacer between the aminopropyl group and the peptide to be synthesized. The amino end of the spacer was deprotected and coupled to NVOC-Leucine. The entire slide was then illuminated with 12 mW of 325 nm broadband illumination. The slide was then coupled with NVOC-Phenylalanine and washed. The entire slide was again illuminated, then coupled to NVOC-Glycine and washed. […]
The resulting fluorescence scan is shown in FIG. 13C, and the scale for the fluorescence intensity is again given on the right. […]

Compound	recognition by Herz antibody
GGFL: tetrapeptide, SEQ ID NO:15	not recognized

System: anti-dynorphin B monoclonal antibody
Test: Dynorphin B deletion peptide array, relative binding of anti-dynorphin B monoclonal antibody by fluorescence intensity
Details: mean ± spread over N synthesis sites
Procedure: The binding epitope on dynorphin B for the anti-dynorphin B antibody described above was determined by deleting various amino acids and combinations of amino acids from the overall sequence of dynorphin B. The peptides containing these various deletions were prepared on a substrate by the general protection-deprotection methods described above. Then the substrate was exposed to the anti-dynorphin B monoclonal antibody and a fluorescence image was produced as shown in FIG. 33.
From the intensity distribution contained in this plot, it was possible to determine the relative binding affinity to various of the peptides.

Compound	RELATIVE INTENSITY
F L R R Q F K V V T: deletion peptide from the dynorphin B sequence (FLRRQFKVVT)	84.2 ± 28.2
F L R R Q F K V V: deletion peptide from the dynorphin B sequence (FLRRQFKVV)	37.4 ± 14.6
F L R R Q F K V: deletion peptide from the dynorphin B sequence (FLRRQFKV)	13.7 ± 3.0
F L R R Q F K: deletion peptide from the dynorphin B sequence (FLRRQFK)	10.2 ± 2.8
F L R R Q F: deletion peptide from the dynorphin B sequence (FLRRQF)	8.5 ± 3.4
K V V T: deletion peptide from the dynorphin B sequence, SEQ ID NO:36 (KVVT)	10.7 ± 1.8
L R R Q F K V V T: deletion peptide from the dynorphin B sequence (LRRQFKVVT)	86.9 ± 13.7
Q F K V V T: deletion peptide from the dynorphin B sequence (QFKVVT)	36.2 ± 16.0
R R Q F K V V T: deletion peptide from the dynorphin B sequence (RRQFKVVT)	98.8 ± 0.9

Same assay, conditions: second value in parentheses

Compound	RELATIVE INTENSITY, value in parentheses (ADJUSTED)
F L R R Q F K V V T: deletion peptide from the dynorphin B sequence (FLRRQFKVVT)	(98.3 ± 1.2)
F L R R Q F K V V: deletion peptide from the dynorphin B sequence (FLRRQFKVV)	(30.5 ± 5.4)
